Columns and labels:
[1] = Pharmacokinetic profiles in rats; type: in vivo; details: bioavailability
Protocol: The compounds disclosed herein are assessed in pharmacokinetic studies in mice, rats, dogs or monkeys. The compounds are administered as a water solution, 2% HPMC+1% TWEEN® 80 in water solution, 5% DMSO+5% solutol in saline, 4% MC suspension or capsule. For the intravenous administration, the animals are generally given at 1 or 2 mg/kg dose. For the oral (p.o.) dosing, mice and rats are generally given 5 or 10 mg/kg dose, and dogs and monkeys are generally given 10 mg/kg dose. The blood samples (0.3 mL) are drawn at 0.25, 0.5, 1.0, 2.0, 3.0, 4.0, 6.0, 8.0, 12 and 24 h time points or 0.083, 0.25, 0.5, 1.0, 2.0, 4.0, 6.0, 8.0 and 24 h time points and centrifuged at 3,000 or 4000 rpm for 2 to 10 min. The plasma solutions are collected, and stored at −20° C. or −70° C. until analyzed by LC/MS/MS as described above.

[2] = Compound stability in human liver microsomes; type: in vitro ADME; details: 37° C.
Protocol: Human or rat liver microsomes incubations were conducted in duplicate in polypropylene tubes. The typical incubation mixtures consisted of human or rat liver microsomes (0.5 mg protein/mL), compounds of interest (5 μM) and NADPH (1.0 mM) in a total volume of 200 μL potassium phosphate buffer (PBS, 100 mM, pH 7.4). Compounds were dissolved in DMSO and diluted with PBS such that the final concentration of DMSO was 0.05%. The enzymatic reactions were commenced with the addition of protein after a 3-min preincubation and incubated in a water bath open to the air at 37° C. Reactions were terminated at various time points (0, 5, 10, 15, 30, 60 min) by adding equal volume of ice-cold acetonitrile. The samples were stored at −80° C. until LC/MS/MS assays.
The concentrations of compounds in the incubation mixtures of human or rat liver microsomes were determined by a LC/MS/MS method. The ranges of the linearity in the concentration range were determined for each tested compounds.
A parallel incubation was performed using denatured microsomes as the negative control, and reactions were terminated at various time points (0, 15, 60 min) after incubation at 37° C.
Dextromethorphan (70 μM) was selected as the positive control, and reactions were terminated at various time points (0, 5, 10, 15, 30, 60 min) after incubation at 37° C. […]

Compound | F [1] [%] | T1/2 [2]
CC(=O)Nc1cc(Oc2ccc(NC(=O)c3c4n(n(-c5ccccc5)c3=O)CCOC4)nc2)ccn1 [Ex. 12, N-(5-((2-acetamidopyridin-4-yl)oxy)pyridin-2-yl)-2-oxo-1-phenyl-2,4,6,7-tetrahydro-1H-pyrazolo[5,1-c][1,4]oxazine-3-carboxamide] | 72.1 | ∞
O=C(Nc1ccc(Oc2ccnc(NC(=O)C3CC3)c2)cn1)c1c2n(n(-c3ccccc3)c1=O)CCC2 [Ex. 14, N-(5-((2-(cyclopropanecarboxamido)pyridin-4-yl)oxy)pyridin-2-yl)-2-oxo-1-phenyl-2,4,5,6-tetrahydro-1H-pyrrolo[1,2-b]pyrazole-3-carboxamide] | 87.9 | –
O=C(Nc1ccc(Oc2ccnc(NC(=O)C3CC3)c2)cc1)c1c2n(n(-c3ccccc3)c1=O)CCOC2 [Ex. 19, N-(4-((2-(cyclopropanecarboxamido)pyridin-4-yl)oxy)phenyl)-2-oxo-1-phenyl-2,4,6,7-tetrahydro-1H-pyrazolo[5,1-c][1,4]oxazine-3-carboxamide] | 66.7 | ∞

Results, then the molecule that gave them:

F [1] [%] | T1/2 [2] | Compound
163.3 | – | Nc1cc(Oc2ccc(NC(=O)c3c4n(n(-c5ccccc5)c3=O)CCC4)cc2)ccn1 [Ex. 1, N-(4-((2-aminopyridin-4-yl)oxy)phenyl)-2-oxo-1-phenyl-2,4,5,6-tetrahydro-1H-pyrrolo[1,2-b]pyrazole-3-carboxamide]
68.1 | – | O=C(Nc1ccc(Oc2ccnc(NC(=O)C3CC3)c2)cc1)c1c2n(n(-c3ccccc3)c1=O)CCC2 [Ex. 2, N-(4-((2-(cyclopropanecarboxamido)pyridin-4-yl)oxy)phenyl)-2-oxo-1-phenyl-2,4,5,6-tetrahydro-1H-pyrrolo[1,2-b]pyrazole-3-carboxamide]
94.5 | – | CC(=O)Nc1cc(Oc2ccc(NC(=O)c3c4n(n(-c5ccccc5)c3=O)CCC4)cc2)ccn1 [Ex. 3, N-(4-((2-acetamidopyridin-4-yl)oxy)phenyl)-2-oxo-1-phenyl-2,4,5,6-tetrahydro-1H-pyrrolo[1,2-b]pyrazole-3-carboxamide]
